Assay results as given in patent US6794356B2, “Fabric softening composition comprising a malodor controlling agent” (The Procter & Gamble Company, priority 2000, dated 2004).

Conditions: typical approximate values; salt added to the solution

[Cl-].[Na+] [sodium chloride]
cloud point of 1% solution of Neodol 91-8: 63-66.9 °C

O=S(=O)([O-])[O-].[Ca+2] [calcium sulfate]
cloud point of 1% solution of Neodol 91-8: no change
